Holding throughout (type): cell-based, human
Series [1] relates to uPAR-positive A172 cells. Put plainly: Anti-DNP GDT cell mediated killing of A172 cells. The note with it: Anti-DNP CD28 CAR GDT cells; E:T 8:1; 1, 10, 100 nM; 3 days. On the procedure: Engineering GDT cells with Anti-DNP DAP12-SAR or Anti-DNP CD28 CAR: PBMC were seeded at 4E6 cells per well in a 24 well G-Rex plate in the presence of 1 ug/ml zoledronate and 1.5 ng/ml human IL2. Three days later, the cells were incubated overnight in a 24 well non tissue culture treated plate that was pre coated with retronectin and retrovirus supernatant containing viruses encoding the Anti-DNP DAP12-SAR or Anti-DNP CD28 CAR. The cells were then transferred back to the G-Rex plate and cultured for a further 11 days at which point, the cell product was collected, CD4/CD8 T cells were removed by magnetic selection and the purified engineered GDT cells were cryopreserved.
Measuring T cell mediated killing of A172 cells: A172 cells, which are urokinase type plasminogen activator receptor (uPAR) positive, were engineered with eGFP lentivirus to produce green fluorescent protein expressing cells. […] Also added to the wells were uPAR-CIR or uPAR-(N)CIR at a range of concentrations from 1 nM, 10 nM and 100 nM. […] Samples were run in triplicate. The green image mean of the wells at each time point was calculated using the Incucyte cell by cell analysis software and plotted to yield the following figures. […] For the analysis of killing by Anti-DNP CD28 CAR GDT cells, the area under the growth curve (AUC) was analyzed using PRISM Graphpad and to calculate the % cytotoxicity.

Series [2] relates to PSMA transduced HEK-293 cells. Description: CD69 upregulation of DNP-TAC T cells following stimulation with HEK-293 PSMA cells. The settings on record: DNP-TAC T cells pre labelled 6 hours; co-culture overnight. The method, then: The cells were co-cultured together overnight at 37 degrees. To stop the activation, 20 mM EDTA was added and incubated for 15 minutes. The cells were spun down, media was aspirated, and the cells were stored in 200 μL of cRPMI at 4 degrees prior to staining. The cells were stained with Live-Dead Zombie Aqua, anti-CD3 BV605, anti-CD4 Pacific Blue, anti-CD8 Alexa Fluor 700, anti-NGFR Viobright FITC, and anti-CD69 BV650. Upon staining the cells were run on the Beckman Coulter Cytoflex flow cytometer and analyzed for CD69 expression.

For series [3], the system named is PSMA transduced HEK-293 cells. Description: IFN-gamma / TNF-alpha production of Anti-DNP TAC ABT cells following stimulation with HEK-293 PSMA cells. The settings on record: Anti-DNP TAC ABT cells prelabelled 6 hours; co-culture 4 hours. On the procedure:
The cells were co-cultured together for 4 hours at 37 degrees. Golgi plug was added prior to the co-incubation to prevent cytokine secretion. To stop the activation 20 mM EDTA was added and incubated for 15 minutes. The cells were spun down, media was aspirated, and the cells were stored in 200 μL of cRPMI overnight at 4 degrees. The next day, the cells were surface stained with anti-CD4 Pacific Blue, anti-CD8 Alexa Fluor 700, and anti-NGFR Viobright FITC. The cells were then fixed and permeabilized using a fix/perm buffer solution. The cells were then intracellularly stained with anti-CD3 BV605, anti-TNF-alpha PE-CY7, and anti-IFN-gamma APC. Cells were then run on the Beckman Coulter Cytoflex flow cytometer. The percent of cells positive for TNF-alpha and IFN-gamma, as well as cells positive for both were recorded in the table for the separate CD4 and CD8 T-cell populations.

The subject of series [4] is PSMA-positive LNCaP cells. Description: Anti-DNP TAC ABT cell mediated killing of LNCaP cells (Incucyte). The method, then:
Measuring T cell mediated killing of LNCaP cells: LNCaP prostate cancer cells, which are prostate specific membrane antigen (PSMA) positive, were engineered with Nuclight Red lentivirus to produce cells with nuclear localized red fluorescence to allow for ease of imaging in these experiments. […] The 3 components were co-cultured for 3 days with 4 images per well taken every 6 hours. Samples were run in triplicate. The number of LnCap cells per well at each time point was calculated using the Incucyte cell by cell analysis software and plotted. The area under the growth curve was used as a metric for tumor cell growth for this figure. The larger the area, the greater the tumor cell growth that occurred over the 3 days. The area under the curve for the LnCap control and each condition were used to calculate the % cytotoxicity.

Series [5] has as its system PSMA-positive LNCaP cells. Put plainly: Anti-DNP GDT cell mediated killing of LNCaP cells (Incucyte). On the procedure:
Measuring T cell mediated killing of LNCaP cells: LNCaP prostate cancer cells, which are prostate specific membrane antigen (PSMA) positive, were engineered with Nuclight Red lentivirus to produce cells with nuclear localized red fluorescence to allow for ease of imaging in these experiments. […] Samples were run in triplicate. The number of LNCaP cells per well at each time point was calculated using the Incucyte cell by cell analysis software and plotted. The area under the growth curve was used as a metric for tumor cell growth for this figure. The larger the area, the greater the tumor cell growth that occurred over the 3 days. The area under the curve for the LNCaP control and each condition were used to calculate the % cytotoxicity.

In series [6] the test system is 293-PSMA cells. Put plainly: CD69 and Nur77 expression of activated ABT cells with 293-PSMA cells. An excerpt: (§1) Cells were stained for surface marker expression via Pacific Blue-conjugated mouse anti-human CD4, and AlexaFluor700-conjugated mouse anti-human CD8a, VioBright FITC-conjugated mouse anti-human NGFR, and anti-huCD69, fixed and permeabilized in Permiabilization concentrate diluted in permeabilization diluent, and stained intracellularly with PE-conjugated mouse anti-mouse Nur77.

Series [7] concerns HEK293-PSMA cells (PSMA expressing). Description: Cytokine production of engineered ABT cells following stimulation with HEK293-PSMA cells. On the procedure:
(§2) Measuring cytokine production following stimulation with HEK-293 cells: In a 96 well round bottom plate, 4E5 HEK293-PSMA cells (PSMA expressing) or HEK293-WT cells were incubated with 4E5 Anti-DNP TAC ABT cells, Anti-DNP DAP12 SAR ABT cells, or Anti-CD28 CAR ABT-cells. […] To stop the activation 20 mM EDTA was added and incubated for 15 minutes. Cells were stained for surface expression of CD4 and CD8, fixed and permeabilized in Cytofix/Cytoperm buffer, and stained with APC-conjugated mouse anti-human interferon-gamma, and FITC-conjugated mouse anti-human tumor necrosis factor-alpha. Cells were then run on the Beckman Coulter Cytoflex flow cytometer. The percent of cells positive for tumor necrosis factor-alpha and interferon-gamma for CD4 and CD8 T-cell populations were graphed separately showing the same overall trends.

Series [8] has as its system 293-PSMA cells. Description: Proliferation of adapter functionalized engineered ABT cells (CellTrace Violet). On the procedure:
Each engineered T cell was also cultured in media alone as a control to compare to. All proliferation assay samples were incubated for 3 days at 37° C. and 5% CO2. Cells were then stained with Live/Dead Fixable Near-IR stain, PerCP-Cy5.5-conjugated mouse anti-human CD8a, Alexa Fluor 700-conjugated mouse anti-human CD4, VioBright FITC-conjugated mouse anti-human NGFR, and BV605-conjugated mouse anti-human CD3. Flow cytometry data were acquired.

Series [9] concerns 293-WT cells (do not express PSMA). Put plainly: CD69 and Nur77 expression of ABT cells with 293-WT cells. The settings on record: engineered ABT cells, 100 nM.
From the text: as §1

Series [10] has as its system HEK293-WT cells. Put plainly: Cytokine production of engineered ABT cells, controls with 293-WT cells or no tumor cells. The note with it: Media+CIR; 293-WT+CIR. The method, then: as §2

Molecules are shown by their SMILES. Entries after “also recorded” stand apart in the source; their conditions may differ.

As to `CC(C)C[C@H](NC(=O)[C@H](Cc1ccc(O)cc1)NC(=O)[C@@H](CCCNC(=N)N)NC(=O)[C@@H](CO)NC(=O)[C@H](Cc1ccccc1)NC(=O)[C@H](CC1CCCCC1)NC(=O)[C@H](CC(=O)O)NC(=O)CNC(=O)[C@H](CO)NC(=O)CNC(=O)CNC(=O)[C@H](CCCCNc1ccc([N+](=O)[O-])cc1[N+](=O)[O-])NC(=O)c1cccc(S(=O)(=O)F)c1)C(=O)N[C@@H](Cc1c[nH]c2ccccc12)C(=O)N[C@@H](CO)C(=O)O` [uPAR-CIR, DNP-SuFEx-uPAR binding peptide], in [1], the “cytotoxicity towards A172 cells” value is on record as “exhibited cytotoxicity; also recorded: can be redirected”.
Take `O=C(O)CC[C@H](NC(=O)N[C@@H](CCCCNC(=O)NCCOCCOCCOCCOCCOCCOCCOCCOC(=O)n1cnc(CCNC(=O)CNc2ccc([N+](=O)[O-])cc2[N+](=O)[O-])c1)C(=O)O)C(=O)O` [PSMA-CIR, DNP-Acyl Imidazole-Glutamate Urea Lysine]: the “T cell activation based on upregulation of CD69” value in series [2] is reported as “PSMA-specific activation; also recorded: capable of stimulating Anti-DNP TAC T cell activation”. In addition, the “production of IFN-gamma and TNF-alpha” value in series [3] is “production of IFN-gamma and TNF-alpha”. The “killing of LNCaP cells” value in series [4] (E:T 8:1, 15.63 nM to 125 nM, 3 days) is “could trigger killing; also recorded: promoted killing of the LNCaP cells at low nM concentrations”; in series [5] (Anti-DNP CD28 CAR GDT cells, 125 nM adapter), “could direct T cell cytotoxicity; also recorded: displayed tumor growth control”; in [5] (Anti-DNP DAP12-SAR GDT cells, 125 nM adapter) it was “could trigger killing; also recorded: only suppressed tumor growth in the presence of the PSMA-CIR”; in [5] (CD28 CAR GDT cells, 10 nM adapter), “robust LNCaP killing”. Also, in series [4] (E:T 8:1, 3 days), the “concentration effective at engaging tumor killing” value is not above 15 nM. Moreover, the “adapter concentration at which tumor killing is observed” value in series [5] (Anti-DNP CD28 CAR GDT cells) and in [5] (Anti-DNP DAP12 SAR GDT cells) was not above 15 nM each time. Moreover, in series [5] (Anti-DNP DAP12 SAR and Anti-DNP CD28 CAR GDT cells, 1 uM adapter for 6 hours, washed, then co-culture), the “killing of LNCaP cells after preincubation and wash” value is on record as “retained the ability to kill LNCaP cells”. Further, the “LNCaP killing over a range of concentrations” value in series [5] (both Anti-DNP DAP12-SAR GDT cells and Anti-DNP CD28 CAR GDT cells, 15.6 nM-250 nM) was “sustained across all concentrations”. Further, the “T cell activation (Nur77, CD69), compared to PSMA-(N)CIR” value in series [6] (Anti-DNP DAP12-SAR T cells, 10 nM and 1 nM) is reported as “greater activation at both concentrations”; in series [6] (Anti-DNP-CD28 CAR T cells), “much greater activation”. Moreover, the “T cell activation (Nur77, CD69)” value in [6] (Anti-DNP TAC-T cells, 10 nM and 1 nM) is recorded as “could elicit T cell activation”. Also, the “upregulation of Nur77 and CD69” value in series [6] (TAC, DAP12-SAR and CD28-CAR ABT cells, 293-PSMA, 100 nM, 4 hours) is “Upregulation of Nur77 and CD69; also recorded: only occurred in the presence of CIR and PSMA-expressing target cells”. Also, the “upregulation of Nur77 and CD69, CIR compared to (N)CIR” value in series [6] (all engineered ABT cells, 293-PSMA, 10 nM and 1 nM) was “stronger with CIR compared to (N)CIR; also recorded: increased activation and downstream signal strength”. Further, in [7] (CD28-CAR T cells, 1 nM, 10 nM), the “cytokine production, compared to PSMA-(N)CIR” value is “increased cytokine production at lower concentrations”. In addition, the cytokine production entry is given as “equivalent levels of cytokine production” in series [7] (CD28-CAR T cells, highest concentration (100 nM)); “strongest activation was mediated by the CIR” in [7] (DAP12-SAR T cells, 1, 10, 100 nM); “only activated by the CIR” in series [7] (TAC T cells, 1, 10, 100 nM). In series [7] (all three engineered receptors (TAC, DAP12-SAR, CD28-CAR) ABT cells, 1, 10, 100 nM), the “production of interferon-gamma and tumor necrosis factor-alpha” value is “target specific production of interferon-gamma and tumor necrosis factor-alpha; also recorded: Increased cytokine production”. Also, in [8] (Anti-DNP CD28 CAR T cells), the “T cell proliferation, PSMA-CIR versus PSMA-(N)CIR” value was “performed similarly”. For the same molecule, the “T cell proliferation (percent divided)” value in [8] (Anti-DNP DAP12 SAR T cells, 1 nM, 10 nM, or 100 nM) was “robust proliferation”; in series [8] (Anti-DNP TAC T cells, 1, 10, 100 nM, 3 days), “only entered proliferation when co-cultured with 293-PSMA cells and 100 nM PSMA-CIR”. Moreover, the “Nur77 and CD69 (off-target activation)” value in series [9] is reported as “no increase of Nur77 or CD69 above the media-only control”. Moreover, the “cytokine production in controls” value in series [10] is recorded as “the controls showed no cytokine production”.
